In patent publication US20050215621A1, “Method of treating amyloid beta precursor disorders” (Andrx Labs, LLC, priority 1999, published 2005):

Legend:
[1] = test system: H4, MDCK, and CHO cells, expressing human APPm; test: [35S]-Met pulse-chase, immunoprecipitation (antibody 6E10) and autoradiography of Aβ peptides after 4 days with compound; format: cell-based, canine, Chinese hamster; conditions: for decrease of extracellular Aβ peptides as compared to the untreated cells: 0.5 μM, 4 days, H4, MDCK, CHO cells
Description: (§1) The three cell lines utilized were: Chinese Hamster Ovary (CHO) cells expressing the 751 amino acid form of APP; Mabin-Darby Canine Kidney (MDCK) cells which overexpress the 695 amino acid form of APP; Human neuroglioma (H4) cells overexpressing the 695 form of human APP. All cells were prepared by the stable introduction of a cDNA coding for human APP. All cell lines were maintained in DMEM containing 10% FBS and antibiotics.
In order to characterize the effects of cholesterol depletion, cell cultures of each cell line were cultured on six-well plates for 4 days in DMEM containing 10% FCLPDS, in the presence of lovastatin or lovastatin acid (LA).
For measurement of APP processing and Aβ peptide formation, medium was removed and the cells were washed once with PBS and then incubated for 2 hours in DMEM containing 1 mCi/ml [^35S] Methionine. After this “pulse” period, the cells were either (1) lysed to measure the total labeled APPi and APPm at time zero, or (2) the cells were incubated for 2 hours in fresh, unlabeled complete medium (“chase”) and then lysed. Then the cell supernatants and lysates were treated with the appropriate antibody to calculate the amounts of APPi, APPm, APPs, and Aβ peptides.
To measure Aβ peptides, or to measure APPs, which is the secreted carboxyl-terminal truncated form, cell supernatants were incubated with antibody 6E10,which recognizes the first 15 amino acids of the Aβ peptide that correspond to the COOH-terminal amino acids of APPs. See Buxbaum, J. D., et al. (I 994) Proc Natl Acad Sci USA, 91:4489-93, which is incorporated herein by reference.
The incubations with antibody 6E10 or antibody 369 were performed at 4° C. for 75 minutes followed by a 45 minute incubation at 4° C. with either agarose-linked anti-mouse IgG for antibody 6E1O or protein A sepharose for antibody 369. The beads were then washed three times for 10 minutes and then run on either a 10-20% Tris-Tricine Gel for APPs and Aβ peptides or an 8% polyacrylamide gel for cell-associated APP. The gels were dried and exposed to a Phosphor Imager® screen (STORM 860, Molecular Dynamics) and exposed for a minimum of two days. The protein bands were visualized on a STORM 860 Phosphor Imager® (Molecular Dynamics) and quantitated using ImageQuant® (Molecular Dynamics).
To determine whether a decrease in cholesterol is associated with a change in the amount of extracellular Aβ peptides, the H4, MDCK, and CHO cells, expressing human APPm were incubated for 4 days in the presence or absence of 0.5 μM LA. The cells were then incubated in serum-free media containing 1 mCi/mi [^35S] […] Relative levels of extracellular Aβ peptides were determined under each condition by quantitative PhosphorImager autoradiography. […]

[2] = test system: Human neuroglioma (H4) cells overexpressing the 695 form of human APP; test: APP processing ([35S]-labeled APPs and APPm) in H4 cells; format: cell-based
Description: as §1
For measurement of APP processing and Aβ peptide formation, medium was removed and the cells were washed once with PBS and then incubated for 2 hours in DMEM containing 1 mCi/ml [^35S] Methionine. […]
The incubations with antibody 6E10 or antibody 369 were performed at 4° C. for 75 minutes followed by a 45 minute incubation at 4° C. with either agarose-linked anti-mouse IgG for antibody 6E1O or protein A sepharose for antibody 369. […] The protein bands were visualized on a STORM 860 Phosphor Imager® (Molecular Dynamics) and quantitated using ImageQuant® (Molecular Dynamics).
To determine whether cholesterol depletion affects other aspects of APP processing, H4 cells were incubated for four days in the presence or absence of 0.5 μM LA, and subjected to metabolic labeling. The levels of [^35S]-labeled APPi and APPm were determined by immunoprecipitation from cell lysates with an antibody against the COOH-terminal of APP, followed by quantitative autoradiography. […]

CC[C@H](C)C(=O)O[C@H]1C[C@@H](C)C=C2C=C[C@H](C)[C@H](CC[C@@H]3C[C@@H](O)CC(=O)O3)[C@H]21 [lovastatin]
decrease of extracellular Aβ peptides as compared to the untreated cells [1]: < 20%

CC[C@H](C)C(=O)O[C@H]1C[C@@H](C)C=C2C=C[C@H](C)[C@H](CC[C@@H](O)C[C@@H](O)CC(=O)O)[C@H]21 [LA, lovastatin acid]
[35S]-labeled intracellular Aβ peptides in cell lysates ([1]; 0.5 μM LA): No detectable levels | decrease of extracellular Aβ peptides as compared to the untreated cells [1]: 40-60% | concentration sufficient to significantly (p<0.001) decrease extracellular Aβ peptides ([1]; each cell type, various LA concentrations): ≥ 0.05 µM | effects on maturation ([35S]-labeled APPm levels) ([2]; 0.5 μM LA (FIG. 6)): not sufficient to account for the decrease in Aβ peptide levels | [35S]-labeled APPs formation compared to control cells ([2]; H4 cells, 0.5 μM LA, 4 days (FIG. 5)): modest decrease
